Laboratory results taken from patent US10738057B2, “Tertiary alcohols as PI3K-γ inhibitors” (Incyte Corporation, priority 2017, dated 2020).
Counter-ions that a name gives are not always drawn. Blank lines part the entries; values can stand above or below the compound they belong to.

Legend:
[1] = target: PI3Kδ (p110δ/p85α) Recombinant Human Protein (Homo sapiens (Human), UniProt O00329); experiment: PI3Kδ scintillation proximity assay; assay type: biochemical; details: 20 μM PIP2, 2 μM ATP, 3.4 nM PI3Kδ, 120 min, room temperature; read-out: PI3Kδ IC50
Sequence of PI3Kδ (p110δ/p85α) Recombinant Human Protein (O00329 whole entry): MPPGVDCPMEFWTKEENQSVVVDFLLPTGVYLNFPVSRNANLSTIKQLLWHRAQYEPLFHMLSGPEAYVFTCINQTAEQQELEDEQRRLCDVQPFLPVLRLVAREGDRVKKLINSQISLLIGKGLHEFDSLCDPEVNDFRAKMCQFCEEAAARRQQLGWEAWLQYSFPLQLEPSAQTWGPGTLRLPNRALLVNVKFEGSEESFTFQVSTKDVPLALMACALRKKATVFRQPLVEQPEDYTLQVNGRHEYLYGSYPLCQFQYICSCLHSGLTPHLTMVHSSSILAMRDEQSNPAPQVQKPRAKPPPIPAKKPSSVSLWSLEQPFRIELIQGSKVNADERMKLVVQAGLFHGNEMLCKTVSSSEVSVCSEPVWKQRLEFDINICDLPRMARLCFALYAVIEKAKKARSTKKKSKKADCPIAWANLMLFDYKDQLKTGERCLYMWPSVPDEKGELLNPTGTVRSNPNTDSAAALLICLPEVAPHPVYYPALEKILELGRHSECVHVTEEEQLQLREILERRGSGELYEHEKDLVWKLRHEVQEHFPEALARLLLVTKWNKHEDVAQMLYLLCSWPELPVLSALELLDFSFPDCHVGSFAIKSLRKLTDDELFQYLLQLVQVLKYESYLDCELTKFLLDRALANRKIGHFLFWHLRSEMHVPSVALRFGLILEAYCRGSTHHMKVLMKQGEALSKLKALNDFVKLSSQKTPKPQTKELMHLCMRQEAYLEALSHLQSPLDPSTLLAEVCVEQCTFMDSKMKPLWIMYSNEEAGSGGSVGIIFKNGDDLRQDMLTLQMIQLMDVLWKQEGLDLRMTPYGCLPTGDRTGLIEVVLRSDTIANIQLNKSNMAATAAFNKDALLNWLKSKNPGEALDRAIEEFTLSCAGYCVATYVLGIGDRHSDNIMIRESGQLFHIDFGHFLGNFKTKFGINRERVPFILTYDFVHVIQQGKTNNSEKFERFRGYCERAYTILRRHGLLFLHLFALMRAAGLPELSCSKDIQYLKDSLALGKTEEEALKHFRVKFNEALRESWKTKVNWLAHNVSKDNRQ
Sequence of PI3Kδ (p110δ/p85α) Recombinant Human Protein (P27986 whole entry partner): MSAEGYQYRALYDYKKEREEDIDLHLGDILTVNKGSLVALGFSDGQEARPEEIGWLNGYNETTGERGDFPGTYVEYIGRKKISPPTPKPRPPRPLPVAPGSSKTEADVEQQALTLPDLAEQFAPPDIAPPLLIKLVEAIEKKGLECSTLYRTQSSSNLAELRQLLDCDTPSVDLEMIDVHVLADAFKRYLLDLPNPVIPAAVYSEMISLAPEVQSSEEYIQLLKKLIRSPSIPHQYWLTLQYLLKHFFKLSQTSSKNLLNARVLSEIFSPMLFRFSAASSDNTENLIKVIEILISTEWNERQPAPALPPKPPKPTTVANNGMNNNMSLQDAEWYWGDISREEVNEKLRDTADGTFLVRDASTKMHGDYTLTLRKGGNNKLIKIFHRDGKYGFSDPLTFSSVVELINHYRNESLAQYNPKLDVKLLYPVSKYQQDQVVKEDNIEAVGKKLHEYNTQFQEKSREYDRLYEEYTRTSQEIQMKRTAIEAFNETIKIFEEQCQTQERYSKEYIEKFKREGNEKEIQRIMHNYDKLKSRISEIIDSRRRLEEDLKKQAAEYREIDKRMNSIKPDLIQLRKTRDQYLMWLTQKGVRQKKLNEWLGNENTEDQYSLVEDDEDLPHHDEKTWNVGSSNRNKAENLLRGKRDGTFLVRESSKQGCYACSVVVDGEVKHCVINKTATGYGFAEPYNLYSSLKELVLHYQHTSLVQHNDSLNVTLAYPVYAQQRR
Procedure: PI3Kδ Scintillation Proximity Assay
[γ-^33P]ATP (10 mCi/mL) and Wheat Germ Agglutinin (WGA) YSi SPA Scintillation Beads was purchased from PerkinElmer (Waltham, Mass.). […] PI3Kδ (p110δ/p85α) Recombinant Human Protein was purchased from Eurofins (St Charles, Mo.). ATP, MgCl2, DTT, EDTA, MOPS and CHAPS were purchased from SigmaAldrich (St. Louis, Mo.).
The kinase reaction was conducted in polystyrene 384-well Greiner Bio-one white plate from Thermo Fisher Scientific in a final volume of 25 μL. Inhibitors were first diluted serially in DMSO and added to the plate wells before the addition of other reaction components. The final concentration of DMSO in the assay was 2%. The PI3Kδ assay was carried out at room temperature in 20 mM MOPS, pH 6.7, 10 mM MgCl2, 5 mM DTT and CHAPS 0.03%. Reactions were initiated by the addition of ATP, the final reaction mixture consisted of 20 μM PIP2, 2 μM ATP, 0.5 μCi [γ-^33P] […] The final concentration of SPA beads is 1.0 mg/mL. After the plate sealing, plates were shaken overnight at room temperature and centrifuged at 1500 rpm for 10 min, the radioactivity of the product was determined by scintillation counting on Topcount (PerkinElmer). IC50 determination was performed by fitting the curve of percent of the solvent control activity versus the log of the inhibitor concentration using the GraphPad Prism 6.0 software.

[2] = target: PI3Kγ (p110γ) Recombinant Human Protein (Homo sapiens (Human), UniProt P48736); experiment: PI3K-γ scintillation proximity assay; assay type: biochemical; details: 20 μM PIP2, 2 μM ATP, 13 nM PI3Kγ, 120 min, room temperature
Sequence of PI3Kγ (p110γ) Recombinant Human Protein (P48736 whole entry): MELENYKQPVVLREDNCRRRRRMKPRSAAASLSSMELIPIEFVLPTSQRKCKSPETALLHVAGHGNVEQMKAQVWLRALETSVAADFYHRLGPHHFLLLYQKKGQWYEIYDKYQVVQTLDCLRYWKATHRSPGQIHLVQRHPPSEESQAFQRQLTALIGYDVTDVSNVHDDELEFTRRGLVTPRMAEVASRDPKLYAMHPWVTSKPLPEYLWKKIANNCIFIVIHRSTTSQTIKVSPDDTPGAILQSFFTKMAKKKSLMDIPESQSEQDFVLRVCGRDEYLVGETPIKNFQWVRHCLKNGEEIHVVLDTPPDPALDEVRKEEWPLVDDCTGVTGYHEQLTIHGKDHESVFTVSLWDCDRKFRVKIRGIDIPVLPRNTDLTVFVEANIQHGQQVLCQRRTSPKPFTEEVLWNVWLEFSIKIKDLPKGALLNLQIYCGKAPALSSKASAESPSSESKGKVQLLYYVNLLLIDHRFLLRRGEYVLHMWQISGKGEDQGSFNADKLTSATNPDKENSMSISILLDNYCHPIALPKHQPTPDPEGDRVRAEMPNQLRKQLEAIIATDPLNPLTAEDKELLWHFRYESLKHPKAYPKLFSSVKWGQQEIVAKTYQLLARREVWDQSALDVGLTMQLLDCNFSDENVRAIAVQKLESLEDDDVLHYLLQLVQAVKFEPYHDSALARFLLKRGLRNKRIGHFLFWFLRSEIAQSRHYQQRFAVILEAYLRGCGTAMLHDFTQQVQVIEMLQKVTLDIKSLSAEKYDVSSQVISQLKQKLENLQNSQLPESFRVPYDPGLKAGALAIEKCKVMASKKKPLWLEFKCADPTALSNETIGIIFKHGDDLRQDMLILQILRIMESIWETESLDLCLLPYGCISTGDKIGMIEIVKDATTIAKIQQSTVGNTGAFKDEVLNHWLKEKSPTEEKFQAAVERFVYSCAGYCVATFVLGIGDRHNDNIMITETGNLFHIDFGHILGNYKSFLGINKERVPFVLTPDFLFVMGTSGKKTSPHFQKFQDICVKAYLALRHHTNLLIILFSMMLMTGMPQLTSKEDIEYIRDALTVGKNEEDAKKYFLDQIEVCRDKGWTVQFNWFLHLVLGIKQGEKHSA
From the text: Example B. PI3K-γ Scintillation Proximity Assay
[γ-^33P]ATP (10 mCi/mL) and Wheat Germ Agglutinin (WGA) YSi SPA Scintillation Beads was purchased from PerkinElmer (Waltham, Mass.). Lipid kinase substrate, D-myo-Phosphatidylinositol 4,5-bisphosphate (PtdIns(4,5)P2)D (+)-sn-1,2-di-O-octanoylglyceryl, 3-O-phospho linked (PIP2), CAS 204858-53-7, was purchased from Echelon Biosciences (Salt Lake City, Utah). PI3Kγ (p110γ) Recombinant Human Protein was purchased from Life technology (Grand Island, N.Y.). ATP, MgCl2, DTT, EDTA, MOPS and CHAPS were purchased from SigmaAldrich (St. Louis, Mo.).
The kinase reaction was conducted in polystyrene 384-well Greiner Bio-one white plate from Thermo Fisher Scientific in a final volume of 25 μL. Inhibitors were first diluted serially in DMSO and added to the plate wells before the addition of other reaction components. The final concentration of DMSO in the assay was 2%. The PI3Kγ assay was carried out at room temperature in 20 mM MOPS, pH 6.7, 10 mM MgCl2, 5 mM DTT and CHAPS 0.03%. Reactions were initiated by the addition of ATP, the final reaction mixture consisted of 20 μM PIP2, 2 μM ATP, 0.5 μCi [γ-^33P] ATP, 13 nM PI3Kγ. Reactions were incubated for 120 min and terminated by the addition of 40 μL SPA beads suspended in quench buffer: 163 mM potassium phosphate pH 7.8, 20% glycerol, 25 mM EDTA. The final concentration of SPA beads is 1.0 mg/mL. After the plate sealing, plates were shaken overnight at room temperature and centrifuged at 1500 rpm for 10 min, the radioactivity of the product was determined by scintillation counting on Topcount (Perkin-Elmer). IC50 determination was performed by fitting the curve of percent of the solvent control activity versus the log of the inhibitor concentration using the GraphPad Prism 6.0 software.

Structure (SMILES): Cc1ccc(C(C)(O)C(F)(F)F)cc1-c1cnc2c(N)nc(CC(=O)N(C)C)cn12 (centres unmarked) [Example 169, 2-(8-amino-3-(2-methyl-5-(1,1,1-trifluoro-2-hydroxypropan-2-yl)phenyl)imidazo[1,2-a]pyrazin-6-yl)-N,N-dimethylacetamide trifluoroacetate salt]
IC50 [1]: 0.5 to 2 µM
IC50 [2]: 0.1 to 0.5 µM

Structure (SMILES): Cc1ccc(C(C)(O)C(F)F)cc1-c1cnc2c(N)nc(C3CC3C(=O)N3CCN(C)CC3)cn12 (centres unmarked) [Example 77, (2-(8-Amino-3-(5-(1,1-difluoro-2-hydroxypropan-2-yl)-2-methylphenyl)imidazo[1,2-a]pyrazin-6-yl)cyclopropyl)(4-methylpiperazin-1-yl)methanone trifluoroacetate salt]
IC50 [1]: 0.1 to 0.5 µM
IC50 [2]: < 0.1 µM

Structure (SMILES): Cc1ccc(C(C)(O)C(F)(F)F)cc1-c1cnc2c(N)nc(C(=O)NCC(C)(C)O)cn12 (single isomer, unassigned) [Example 62, 8-amino-N-(2-hydroxy-2-methylpropyl)-3-(2-methyl-5-(1,1,1-trifluoro-2-hydroxypropan-2-yl)phenyl)imidazo[1,2-a]pyrazine-6-carboxamide]
IC50 [1]: 0.1 to 0.5 µM
IC50 [2]: < 0.1 µM

Structure (SMILES): Cc1ccc(C(C)(O)C(F)(F)F)cc1-c1cnc2c(N)nc(C(=O)NC34CCN(CC3)C4)cn12 (centres unmarked) [Example 277, 8-Amino-N-(1-azabicyclo[2.2.1]heptan-4-yl)-3-(2-methyl-5-(1,1,1-trifluoro-2-hydroxypropan-2-yl)phenyl)imidazo[1,2-a]pyrazine-6-carboxamide trifluoroacetate salt]
IC50 [1]: 0.1 to 0.5 µM
IC50 [2]: 0.1 to 0.5 µM

Structure (SMILES): CCNC(=O)c1cn2c(-c3cc(C(O)(CNC(C)=O)C(F)(F)F)ccc3C)cnc2c(N)n1 (centres unmarked) [Example 221, 3-(5-(3-acetamido-1,1,1-trifluoro-2-hydroxypropan-2-yl)-2-methylphenyl)-8-amino-N-ethylimidazo[1,2-a]pyrazine-6-carboxamide trifluoroacetate]
IC50 [1]: 0.1 to 0.5 µM
IC50 [2]: < 0.1 µM

Structure (SMILES): CCOC(=O)C1CC1c1cn2c(-c3cc(C(C)(O)C(F)F)ccc3C)cnc2c(N)n1 (single isomer, unassigned) [Example 74, Ethyl 2-(8-amino-3-(5-(1,1-difluoro-2-hydroxypropan-2-yl)-2-methylphenyl)imidazo[1,2-a]pyrazin-6-yl)cyclopropane-1-carboxylate trifluoroacetate salt]
IC50 [1]: 0.5 to 2 µM
IC50 [2]: 0.5 to 2 µM

Structure (SMILES): Cc1cnc(C(C)(O)C(F)(F)F)cc1-c1cnc2c(N)nc(C(F)(F)F)cn12 (centres unmarked) [Example 54, 2-(4-(8-Amino-6-(trifluoromethyl)imidazo[1,2-a]pyrazin-3-yl)-5-methylpyridin-2-yl)-1,1,1-trifluoropropan-2-ol]
IC50 [2]: < 0.1 µM

Structure (SMILES): Cc1ccc(C(C)(O)C(F)(F)F)cc1-c1cnc2c(N)ncnn12 (centres unmarked) [Example 3, 2-(3-(4-Aminoimidazo[2,1-f][1,2,4]triazin-7-yl)-4-methylphenyl)-1,1,1-trifluoropropan-2-ol]
IC50 [1]: 0.5 to 2 µM
IC50 [2]: < 0.1 µM

Structure (SMILES): Cc1cc(F)c(C(C)(O)C(F)(F)F)cc1-c1cnc2c(N)nc(C(F)(F)F)cn12 (centres unmarked) [Example 53, 2-(5-(8-Amino-6-(trifluoromethyl)imidazo[1,2-a]pyrazin-3-yl)-2-fluoro-4-methylphenyl)-1,1,1-trifluoropropan-2-ol]
IC50 [2]: < 0.1 µM

Structure (SMILES): Cc1ccc(C(C)(O)C(F)F)cc1-c1cnc2c(N)nc(N3CCC(C#N)CC3)cn12 (centres unmarked) [Example 64, 1-(8-Amino-3-(5-(1,1-difluoro-2-hydroxypropan-2-yl)-2-methylphenyl)imidazo[1,2-a]pyrazin-6-yl)piperidine-4-carbonitrile]
IC50 [1]: 0.5 to 2 µM
IC50 [2]: < 0.1 µM

Structure (SMILES): Cc1ccc(C(C)(O)C(F)F)cc1-c1cnc2c(N)nc(-c3cncnc3)cn12 (centres unmarked) [Example 32, 2-(3-(8-Amino-6-(pyrimidin-5-yl)imidazo[1,2-a]pyrazin-3-yl)-4-methylpheny1)-1,1-difluoropropan-2-ol]
IC50 [1]: 0.5 to 2 µM
IC50 [2]: < 0.1 µM

Structure (SMILES): CC(O)(c1cc(-c2cnc3c(N)nc(C(F)(F)F)cn23)ccc1F)C(F)(F)F (centres unmarked) [Example 55, 2-(5-(8-Amino-6-(trifluoromethyl)imidazo[1,2-a]pyrazin-3-yl)-2-fluorophenyl)-1,1,1-trifluoropropan-2-ol]
IC50 [2]: < 0.1 µM

Structure (SMILES): Cc1ccc(C(C)(O)C(F)F)cc1-c1cnc2c(N)nc(C3CC3CO)cn12 (single isomer, unassigned) [Example 80, 2-(3-(8-Amino-6-(2-(hydroxymethyl)cyclopropyl)imidazo[1,2-a]pyrazin-3-yl)-4-methylphenyl)-1,1-difluoropropan-2-ol]
IC50 [1]: 0.5 to 2 µM
IC50 [2]: < 0.1 µM

Structure (SMILES): Cc1cn2c(-c3cc(C(C)(O)C(F)(F)F)ccc3C)cnc2c(N)n1 (centres unmarked) [Example 7, 2-(3-(8-Amino-6-methylimidazo[1,2-a]pyrazin-3-yl)-4-methylphenyl)-1,1,1-trifluoropropan-2-ol]
IC50 [1]: 0.1 to 0.5 µM
IC50 [2]: < 0.1 µM

Results, then the compound that gave them:

IC50 [1]: 0.5 to 2 µM
IC50 [2]: 0.1 to 0.5 µM
Structure (SMILES): Cc1ccc(C(C)(O)C(F)(F)F)cc1-c1cnc2c(N)nc(CC(=O)N3CCOCC3)cn12 (centres unmarked) [Example 173, 2-(8-amino-3-(2-methyl-5-(1,1,1-trifluoro-2-hydroxypropan-2-yl)phenyl)imidazo[1,2-a]pyrazin-6-yl)-1-morpholinoethanone trifluoroacetate salt]

IC50 [2]: < 0.1 µM
Structure (SMILES): CC(O)(c1cccc(-c2cnc3c(N)nc(C(F)(F)F)cn23)c1)C(F)(F)F (centres unmarked) [Example 56, 2-(3-(8-Amino-6-(trifluoromethyl)imidazo[1,2-a]pyrazin-3-yl)phenyl)-1,1,1-trifluoropropan-2-ol]

IC50 [2]: < 0.1 µM
Structure (SMILES): CC(O)(c1ccc(F)c(-c2cnc3c(N)nc(C(F)(F)F)cn23)c1)C(F)(F)F (centres unmarked) [Example 57, 2-(3-(8-Amino-6-(trifluoromethyl)imidazo[1,2-a]pyrazin-3-yl)-4-fluorophenyl)-1,1,1-trifluoropropan-2-ol]

IC50 [2]: 0.1 to 0.5 µM
Structure (SMILES): Cc1ncc(C(C)(O)C(F)(F)F)cc1-c1cnc2c(N)nc(C(F)(F)F)cn12 (centres unmarked) [Example 58, 2-(5-(8-Amino-6-(trifluoromethyl)imidazo[1,2-a]pyrazin-3-yl)-6-methylpyridin-3-yl)-1,1,1-trifluoropropan-2-ol]

IC50 [1]: 0.1 to 0.5 µM
IC50 [2]: < 0.1 µM
Structure (SMILES): CC(=O)NCC(O)(c1ccc(C)c(-c2cnc3c(N)nc(C(F)(F)F)cn23)c1)C(F)(F)F (centres unmarked) [Example 211, N-(2-(3-(8-amino-6-(trifluoromethyl)imidazo[1,2-a]pyrazin-3-yl)-4-methylphenyl)-3,3,3-trifluoro-2-hydroxypropyl)acetamide trifluoroacetate]

IC50 [1]: 0.1 to 0.5 µM
IC50 [2]: < 0.1 µM
Structure (SMILES): Cc1ccc(C(C)(O)C(F)(F)F)cc1-c1cnc2c(N)nc(N3CCC(O)CC3)cn12 (centres unmarked) [Example 65, 1-(8-Amino-3-(2-methyl-5-(1,1,1-trifluoro-2-hydroxypropan-2-yl)phenyl)imidazo[1,2-a]pyrazin-6-yl)piperidin-4-ol]

IC50 [1]: 0.1 to 0.5 µM
IC50 [2]: < 0.1 µM
Structure (SMILES): Cc1ccc(C(O)(CNC(=O)c2ccccc2)C(F)(F)F)cc1-c1cnc2c(N)nc(C(F)(F)F)cn12 (centres unmarked) [Example 212, N-(2-(3-(8-amino-6-(trifluoromethyl)imidazo[1,2-a]pyrazin-3-yl)-4-methylphenyl)-3,3,3-trifluoro-2-hydroxypropyl)benzamide trifluoroacetate salt]

IC50 [1]: 0.5 to 2 µM
IC50 [2]: < 0.1 µM
Structure (SMILES): Cc1ccc(C(O)(CCNC2CCOCC2)C(F)(F)F)cc1-c1cnc2c(N)nc(C(F)(F)F)cn12 (centres unmarked) [Example 17, 2-(3-(8-Amino-6-(trifluoromethyl)imidazo[1,2-a]pyrazin-3-yl)-4-methylphenyl)-1,1,1-trifluoro-4-((tetrahydro-2H-pyran-4-yl)amino)butan-2-ol bis(2,2,2-trifluoroacetate)]
